Assay: Differential scanning calorimetry of amorphous sirolimus (glass transition temperature)
Format: physicochemical
Conditions: DSC, TA-Instruments Q1000 MTDSC, approximately 3 mg, heating rate 2° C./min; higher Tg is said to mean a more stable amorphous material
Experimental: In another test, the amorphous sirolimus is analyzed utilizing differential scanning calorimetry. Essentially, the purpose of this test is to determine the glass transition temperature of the amorphous sirolimus. In this test, approximately 3 mg of amorphous sirolimus is transferred into a standard aluminum TA-Instrument sample pan and covered. The DSC curve is recorded on a TA-Instruments Q1000 MTDSC equipped with a RCS cooling unit. FIG. 2 illustrates a differential scanning calorimetry curve of amorphous sirolimus.

Q: Which glass transition temperature does the source give for `CO[C@H]1C[C@@H]2CC[C@@H](C)[C@@](O)(O2)C(=O)C(=O)N2CCCC[C@H]2C(=O)O[C@H]([C@H](C)C[C@@H]2CC[C@@H](O)[C@H](OC)C2)CC(=O)[C@H](C)/C=C(\C)[C@@H](O)[C@@H](OC)C(=O)[C@H](C)C[C@H](C)/C=C/C=C/C=C/1C` [amorphous sirolimus, (3S,6R,7E,9R,10R,12R,14S,15E,17E,19E,21 S,23S, 26R,27R,34aS)-9, 10, 12, 13, 14,21,22,23,24,25,26,27,32,33,34, 34a-hexadecahydro-9,27-dihydroxy-3-[(1R)-2-[(1S,3R,4R)-4-hydroxy-3-methoxycyclohexyl]-1-methylethyl]-10,21-dimethoxy-6,8,12,14,20,26-hexamethyl-23,27-epoxy-3H-pyrido[2,1-c][1,4] oxaazacyclohentriacontine-1,5,11,28,29(4H,6H,31H)-pentone] here?
A: The glass transition temperature was “about 93 °C”.

From patent US20060094744A1, “Pharmaceutical dosage forms of stable amorphous rapamycin like compounds” (priority 2004, published 2006)
